Laboratory results as given in publication PMC4724290 (Synapse (New York, N.Y.), 2015).
Values joined by “and” are separate entries in the source; they are usually repeats but may differ in a detail not shown here. Equal values may be shown once. Read-outs that look alike come from different tables or passages of the source.

Legend:
σ1 receptors [1] = biological target: T1, σ1 receptors (Mus musculus, UniProt O55242); format: in vivo, CD-1 mice; settings: saline control, 60 min
σ1 receptors [2] = biological target: T1, σ1 receptors; format: in vivo, CD-1 mice; settings: 2.5 μCi i.v., 60 min; non-specific defined by BD1063
σ1 receptors [3] = biological target: T1, σ1 receptors; test: In vitro σ1 receptor binding, [^3H]; design: species or system CD-1 mouse; settings: for Sigma1 nH: 3.0 nM [^3H](+)pentazocine; for Selectivity Ki Ratio σ2/σ1: CD-1 mouse whole brain membranes
[4] = ref Lever et al., 2012, 2014a, 2015; cited from earlier work
σ2 receptors = biological target: T2, σ2 receptors (Mus musculus, UniProt Q8VD00); test: In vitro σ2 receptor binding, [^3H]DTG/; design: species or system CD-1 mouse; settings: for Sigma2 nH: 3.0 nM [^3H]DTG/500 nM (+)pentazocine, 25 °C, 60 min
T2 sequence (Q8VD00 1-176): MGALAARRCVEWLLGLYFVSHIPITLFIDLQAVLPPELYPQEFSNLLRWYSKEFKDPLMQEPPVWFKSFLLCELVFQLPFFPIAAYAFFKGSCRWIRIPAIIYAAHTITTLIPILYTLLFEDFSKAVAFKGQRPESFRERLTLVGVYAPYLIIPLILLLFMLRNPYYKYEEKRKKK

σ1 receptors [5] = biological target: T1, σ1 receptors; settings: ref Lever et al., cited from earlier work
DAT = settings: read-out: Ki for the DAT (apparent affinity); ref Garcés-Ramírez et al., 2011; cited from earlier work
Swiss Webster mice = settings: doses as low as 0.1 mg/kg (0.29 μmol/kg); ref Matsumoto et al., 2001a; cited from earlier work
[6] = biological target: striatal dopamine transporters (DAT) (Mus musculus, UniProt Q61327); test: In vivo DAT occupancy: inhibition of [^125I]RTI-121 specific binding in striatum; design: species or system CD-1 mice
CD-1 mice = test: Locomotor activity: basal and; format: in vivo
striatal DAT = settings: Swiss Webster strain; ref Desai and colleagues (2005); cited from earlier work
mice = settings: cited from earlier work
[7] = ref Fowler et al., 2007; cited from earlier work
σ1 receptors [8] = settings: read-out: σ1 Ki; ref Lever et al., 2014a; cited from earlier work

T1 sequence (O55242 whole entry): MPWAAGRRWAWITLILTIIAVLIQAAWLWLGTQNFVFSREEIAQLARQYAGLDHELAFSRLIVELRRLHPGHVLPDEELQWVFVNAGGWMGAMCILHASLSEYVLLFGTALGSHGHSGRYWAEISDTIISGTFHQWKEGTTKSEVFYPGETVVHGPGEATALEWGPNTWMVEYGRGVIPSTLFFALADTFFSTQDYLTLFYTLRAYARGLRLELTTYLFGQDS
Chain of striatal dopamine transporters (DAT) (Q61327 whole entry): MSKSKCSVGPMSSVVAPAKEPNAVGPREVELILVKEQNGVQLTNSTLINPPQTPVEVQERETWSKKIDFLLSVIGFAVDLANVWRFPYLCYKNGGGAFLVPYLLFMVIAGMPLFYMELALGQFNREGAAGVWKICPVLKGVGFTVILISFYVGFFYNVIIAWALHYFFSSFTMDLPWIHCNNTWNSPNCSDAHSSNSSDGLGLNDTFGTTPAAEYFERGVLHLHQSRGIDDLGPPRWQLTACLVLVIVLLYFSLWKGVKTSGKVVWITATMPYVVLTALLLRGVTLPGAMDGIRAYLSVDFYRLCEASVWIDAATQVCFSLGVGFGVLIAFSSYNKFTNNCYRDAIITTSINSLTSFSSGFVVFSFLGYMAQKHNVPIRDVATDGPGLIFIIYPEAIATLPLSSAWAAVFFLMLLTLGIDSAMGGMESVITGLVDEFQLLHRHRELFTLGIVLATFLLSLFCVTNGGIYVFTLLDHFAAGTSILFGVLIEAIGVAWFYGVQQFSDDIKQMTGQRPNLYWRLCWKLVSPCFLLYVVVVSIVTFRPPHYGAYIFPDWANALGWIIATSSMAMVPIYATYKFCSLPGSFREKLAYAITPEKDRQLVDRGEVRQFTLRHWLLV

COc1ccc(CCN2CCN(C/C=C/[125I])CC2)cc1OC [[^125I]E-IA-DM-PE-PIPZE, [^125I]E-N-1-(3′-iodoallyl)-N′-4-(3″,4″-dimethoxyphenethyl)-piperazine]
Specific Binding [^125I]E-IA-DM-PE-PIPZE, Control (σ1 receptors [1]; Caudate-putamen): 1.96 ± 0.07 fmol/mg tissue
Specific Binding [^125I]E-IA-DM-PE-PIPZE, Control (σ1 receptors [1]; Cortex, Cingulate): 2.69 ± 0.20 fmol/mg tissue
Specific Binding [^125I]E-IA-DM-PE-PIPZE, Control (σ1 receptors [1]; Cortex, Entorhinal): 2.52 ± 0.09 fmol/mg tissue
Specific Binding [^125I]E-IA-DM-PE-PIPZE, Control (σ1 receptors [1]; Cortex, Frontal): 2.99 ± 0.19 fmol/mg tissue
Specific Binding [^125I]E-IA-DM-PE-PIPZE, Control (σ1 receptors [1]; Cortex, Parietal): 3.12 ± 0.14 fmol/mg tissue
Specific Binding [^125I]E-IA-DM-PE-PIPZE, Control (σ1 receptors [1]; Cortex, Temporal): 2.93 ± 0.16 fmol/mg tissue
Specific Binding [^125I]E-IA-DM-PE-PIPZE, Control (σ1 receptors [1]; Diencephalon, Thalamic nuclei): 2.94 ± 0.10 fmol/mg tissue
Specific Binding [^125I]E-IA-DM-PE-PIPZE, Control (σ1 receptors [1]; Diencephalon, Thalamus): 2.57 ± 0.13 fmol/mg tissue
Specific Binding [^125I]E-IA-DM-PE-PIPZE, Control (σ1 receptors [1]; Hippocampus, CA1 pyramidal): 2.25 ± 0.12 fmol/mg tissue
Specific Binding [^125I]E-IA-DM-PE-PIPZE, Control (σ1 receptors [1]; Hippocampus, CA2 pyramidal): 2.87 ± 0.13 fmol/mg tissue
Specific Binding [^125I]E-IA-DM-PE-PIPZE, Control (σ1 receptors [1]; Hippocampus, CA3 pyramidal): 3.34 ± 0.10 fmol/mg tissue
Specific Binding [^125I]E-IA-DM-PE-PIPZE, Control (σ1 receptors [1]; Hippocampus, Dentate Gyrus): 3.27 ± 0.08 fmol/mg tissue
Specific Binding [^125I]E-IA-DM-PE-PIPZE, Control (σ1 receptors [1]; Hippocampus, Nonpyramidal): 1.84 ± 0.08 fmol/mg tissue
Specific Binding [^125I]E-IA-DM-PE-PIPZE, Control (σ1 receptors [1]; Mesencephalon, Inferior Colliculi): 3.50 ± 0.20 fmol/mg tissue
Specific Binding [^125I]E-IA-DM-PE-PIPZE, Control (σ1 receptors [1]; Mesencephalon, Periaqueductal Gray): 4.07 ± 0.13 fmol/mg tissue
Specific Binding [^125I]E-IA-DM-PE-PIPZE, Control (σ1 receptors [1]; Mesencephalon, Superior Colliculi): 3.50 ± 0.14 fmol/mg tissue
Specific Binding [^125I]E-IA-DM-PE-PIPZE, Control (σ1 receptors [1]; Metencephalon, Cerebellum (whole)): 3.18 ± 0.08 fmol/mg tissue
Specific Binding [^125I]E-IA-DM-PE-PIPZE, Control (σ1 receptors [1]; Metencephalon, Granular layer): 4.13 ± 0.20 fmol/mg tissue
Specific Binding [^125I]E-IA-DM-PE-PIPZE, Control (σ1 receptors [1]; Metencephalon, Molecular layer): 2.38 ± 0.08 fmol/mg tissue
Specific Binding [^125I]E-IA-DM-PE-PIPZE, Control (σ1 receptors [1]; White Matter, Corpus callosum): 1.99 ± 0.06 fmol/mg tissue
Control specific binding to σ1 receptors, brain (σ1 receptors [2]): 83%
Control specific binding to σ1 receptors, heart (σ1 receptors [2]): 53%
Control specific binding to σ1 receptors, lung (σ1 receptors [2]): 66%
Control specific binding to σ1 receptors, spleen (σ1 receptors [2]): 71%
Selectivity for binding to σ1 over σ2 receptors (σ1 receptors [3]; from Table II): 200 fold
Metabolic stability [4]: excellent metabolic stability

CN1CCN(CCc2ccc(Cl)c(Cl)c2)CC1 [BD1063, 1-[2-(3,4-dichlorophenyl)ethyl]-4-methylpiperazine]
IC50 (σ2 receptors): 843 ± 104 nM
Ki (σ2 receptors): 762 ± 94 nM
Sigma2 nH (σ2 receptors): 0.96 ± 0.13
Occupancy of cerebral σ1 receptors (σ1 receptors [5]; doses ≥ 3.16 μmol/kg, in the absence of (−)-cocaine, 2014b): ≥ 89%
ED50 for σ1 occupancy, brain (σ1 receptors [5]; same protocol, 2014b): 0.62 µmol/kg
ED50 for σ1 occupancy, heart (σ1 receptors [5]; same protocol, 2014b): 0.14 µmol/kg
ED50 for σ1 occupancy, lung (σ1 receptors [5]; same protocol, 2014b): 0.20 µmol/kg
ED50 for σ1 occupancy, spleen (σ1 receptors [5]; same protocol, 2014b): 1.47 µmol/kg
Affinity for σ1 receptors relative to (−)-cocaine (higher) (σ1 receptors [3]): ~200 fold
Affinity for σ1 receptors relative to PD144418 (lower) (σ1 receptors [3]): 30 fold
IC50 (σ1 receptors [3]): 9.68 ± 1 nM
Ki (σ1 receptors [3]): 5.98 ± 0.62 nM
Sigma1 nH (σ1 receptors [3]; 37 °C, 180 min): 1.17 ± 0.08
Selectivity Ki Ratio σ2/σ1 (σ1 receptors [3]): 127
Ki (DAT): 8000 nM
Protection from (−)-cocaine-induced convulsions (Swiss Webster mice): protect
Inhibition of striatal [^125I]RTI-121 specific binding ([6]; 10.0 μmol/kg i.p.): did not inhibit
Increase of (−)-cocaine-induced hyperactivity (CD-1 mice; 3.16 μmol/kg i.p., not statistically significant): 17%
Decrease of (−)-cocaine-induced hyperactivity (CD-1 mice; 31.6 μmol/kg i.p., not statistically significant): 19%
Effect on basal locomotor activity (CD-1 mice; i.p., E-IA-DM-PE-PIPZE up to 3.16 μmol/kg, BD1063 3.16 and 31.6 μmol/kg, 60 min): did not significantly affect basal activity

CC(C(O)c1ccc(O)cc1)N1CCC(Cc2ccccc2)CC1 (stereo not drawn) [Ifenprodil, ifenprodil (+)-tartrate]
IC50 (σ2 receptors): 2.69 ± 0.36 nM
Ki (σ2 receptors): 2.43 ± 0.32 nM
Sigma2 nH (σ2 receptors): 0.70 ± 0.07
IC50 (σ1 receptors [3]): 35 ± 0.95 nM
Ki (σ1 receptors [3]): 22.7 ± 0.61 nM
Sigma1 nH (σ1 receptors [3]; 37 °C, 180 min): 1.08 ± 0.06
Selectivity Ki Ratio σ2/σ1 (σ1 receptors [3]): 0.1

(−)-Cocaine hydrochloride
ED50 for displacement of striatal binding (striatal DAT): 38 µmol/kg
ED50 for maximum stimulatory effects on locomotor activity (mice; CD-1 mice, 3 h period, ref Thomsen and Caine (2011)): 18.2 mg/kg
ED50 for maximum stimulatory effects on locomotor activity (mice; CD-1 mice, first hour, ref Carroll et al. (2004)): 10 mg/kg
ED50 for maximum stimulatory effects on locomotor activity (mice; Swiss Webster mice, 3 h period, ref Thomsen and Caine (2011)): 9.7 mg/kg
Log D7.4 [7]: 1.31

Fc1ccc(C(OCCN2CCN(CCCc3ccccc3)CC2)c2ccc(F)cc2)cc1 [GBR12909, 1-{2-[bis-(4-fluorophenyl)methoxy]ethyl}-4-(3-phenylpropyl)piperazine]
inhibition at 10 µmol/kg ([6]; mouse, iv, read-out: Inhibition of specific [^125I]RTI-121 binding): 75%

CC(C)=CCN1CC[C@]2(C)c3cc(O)ccc3C[C@H]1[C@H]2C [[^3H](+)-Pentazocine]
Maximal site density (Bmax), σ1 receptors (σ1 receptors [3]; saturation binding, 37 °C, 180 min): 538 ± 30 fmol/mg protein and 538 fmol/mg protein

CCCN1CCC=C(c2cc(-c3ccc(C)cc3)no2)C1 [PD144418]
σ1 receptor occupancy threshold for significant behavioral effects (σ1 receptors [5]; 2014a): 80%
Ki (σ1 receptors [8]): 0.19 nM

CC(C)=CCN1CC[C@]2(C)c3cc(O)ccc3C[C@H]1[C@H]2C [(+)-Pentazocine, (+)-pentazocine]
Sigma1 nH (σ1 receptors [3]; 37 °C, 180 min): 1.09 ± 0.03
